Results: patent publication US5698578A, “Protein kinase C inhibitors” (Eli Lilly and Company, priority 1996, dated 1997)
pIC50: −log10 of the molar value. Entries after “also recorded” stand apart in the source; their conditions may differ.

How the values were obtained:
[1] = from CN1C(=O)C(c2c[nH]c3ccccc23)=C(c2cn(CCOC(CCI)CO[Si](c3ccccc3)(c3ccccc3)C(C)(C)C)c3ccccc23)C1=O; amine bond; Cs2CO3; DMF; 8.98 mM; 68.0 h
[2] = molecular target: Protein Tyrosine Kinase (src) (Homo sapiens, UniProt P12931); experiment: Protein Tyrosine Kinase Assay (src); type: biochemical; conditions: Table 1; Raytide substrate
Sequence of Protein Tyrosine Kinase (src) (P12931 whole entry, species assumed): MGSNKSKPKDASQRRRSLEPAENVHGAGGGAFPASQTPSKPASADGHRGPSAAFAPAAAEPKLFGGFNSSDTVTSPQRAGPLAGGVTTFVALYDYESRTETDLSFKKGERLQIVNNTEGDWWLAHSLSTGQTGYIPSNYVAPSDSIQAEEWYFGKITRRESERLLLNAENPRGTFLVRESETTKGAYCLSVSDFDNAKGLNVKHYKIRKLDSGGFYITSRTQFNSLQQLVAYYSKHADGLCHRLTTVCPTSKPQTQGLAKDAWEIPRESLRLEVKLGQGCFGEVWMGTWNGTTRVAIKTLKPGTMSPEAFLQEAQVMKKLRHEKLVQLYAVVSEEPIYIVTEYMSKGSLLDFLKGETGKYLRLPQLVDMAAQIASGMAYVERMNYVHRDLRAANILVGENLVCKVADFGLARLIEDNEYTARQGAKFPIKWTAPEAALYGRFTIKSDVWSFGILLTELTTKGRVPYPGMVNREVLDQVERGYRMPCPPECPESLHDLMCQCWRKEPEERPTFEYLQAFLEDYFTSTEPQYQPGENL
Description: Protein Tyrosine Kinase Assay (src)
The Assay components are the following:
4 μL DMSO or DMSO/inhibitor

[3] = tested on: protein kinase C isozymes; conditions: literature; cited from earlier work
PKC-α = PKC-α (Homo sapiens, UniProt P17252); experiment: PKC Enzyme Assay, alpha isozyme; type: biochemical; conditions: Table 1, 30 μM ATP, 30° C., 10 minutes
Description: PKC enzymes=alpha, beta I, beta II, gamma, delta, epsilon, eta and zeta.
Assay components in a total volume of 250 μL are as follows:
For all the enzymes either histone type HL (Worthington) or myelin basic protein is used as substrate. The assay is started by addition of protein kinase C enzyme incubated at 30° C. for 10 minutes and stopped by adding 0.5 mL of cold trichloroacetic acid (Amresco) followed by 100 μL of 1 mg/mL bovine serum albumin (Sigma, St. Louis, Mo.). The precipitate is collected by vacuum filtration on glass fiber filters employing a TOMTEC™ filtration system and quantified by counting in a beta scintillation counter.

Compound: CN1C(=O)C2=C(C1=O)c1cn(c3ccccc13)CCC(CO[Si](c1ccccc1)(c1ccccc1)C(C)(C)C)OCCn1cc2c2ccccc21 (stereo not shown)
- ring closure, yield of all isomers [1]: 82%

Compound: O=C1NC(=O)C2=C1c1cn(c3ccccc13)CCO[C@H](CNCc1ccccc1)CCn1cc2c2ccccc21 [Example 18s]
- pIC50 [2]: < 4.00

Compound: CN(C)CCCn1cc(C2=C(c3c[nH]c4ccccc34)C(=O)NC2=O)c2ccccc21 [3-[1-(3-dimethylaminopropyl)-indol-3-yl]-4-(1H-indol-3-yl)-1H-pyrrole-2,5-dione]
- PKC isozyme selectivity [3]: slight selectivity for the calcium dependent isozymes; also recorded: no difference, or possibly slight selectivity, for alpha over beta-1 and beta-2 isozymes

Compound: O=C1NC(=O)C2=C1c1cn(c3ccccc13)CCO[C@H](CNS(=O)(=O)c1ccccc1)CCn1cc2c2ccccc21 [Example 21s]
- pIC50 (PKC-α): < 5.30
